Tests used:
[1] = tested on: lithiasic phenotype in cystinuric mice; test: ROC curve of urine S-Met-L-Erg concentration to differentiate the lithiasic phenotype; set-up: species or system mouse; conditions: stone former vs non-stone former Slc7a9-/- mice
Protocol: Mice from each genotype were individually housed in metabolic cages for 4 days with the first day as an adaptation period. Mice weight, water and food intake, and feces and urine excreted were monitored daily. 24 h urine samples were collected and kept at −80° C. until further analysis with 50 μL thymol 10% in isopropanol as preservative. Blood was obtained by intracardiac puncture with EDTA coated syringes and transferred into Microvette EDTA-tubes (Sarstedt) and centrifuged at 3000 rpm for 10 min and 4° C. in a minifuge after a 10 min incubation at room temperature. Plasma was then separated into a new tube and kept on ice. Plasma absorbance at 414 nm was then determined to quantify hemolysis with a NanoDrop spectrophotometer and only those with OD<0.2 were considered for the further analysis. Plasma samples were stored at −80° C. and centrifuged erythrocytes (RBCs) were also collected and stored at −80° C.
For L-Erg and S-met-L-Erg analysis in urine, thawed urine samples where centrifuged at 1000×g 5 min and 4° C. to remove any debris. […] The samples where then filtered through eXtremeFV PVDF 0.2 μm filter vials (Thomson Instrument Company), and L-Erg and S-met quantified by UPLC-MS/MS. […]
Mass spectrometry was carried out under positive ion, electrospray ionization mode, using multiple reaction monitoring (MRM) for quantification of specific target ions. […]

[2] = L-Erg-Cys in vitro binding assay; conditions: pH=7.2 and pH=11, RT, 17 h, LC/MS-MS
Protocol: The reactivity of L-Erg with itself and with Cys was assayed in vitro at two conditions pH=7.2 in 0.2M Na2HPO4 and pH=11 in boric acid buffer (ref. 33650-1L, Fluka) at RT for 17 h. The presence of L-Erg-L-Erg and L-Erg-Cys dimers, and cystine was determined by LC/MS-MS.

[3] = tested on: transulfuration pathway metabolites in kidney; test: Intracellular content of transulfuration pathway metabolites in kidneys of chronically treated mice (UPLC-MS/MS); format: in vivo, mouse; conditions: chronically L-Erg treated vs untreated mice
Protocol: For the chronic exposure (6-month treatment), 4-6 mice per cage were treated since weaning for 6 months. To control L-Erg dose, water intake and mice weight were monitored and L-Erg concentration in drinking water was adjusted to get 16 mg/kg·day dose every 3 days for the first month and weekly afterwards. All mice were caged in metabolic cages individually the last week of the treatment to collect urine where water intake and mice weight were monitored daily. On the last day, mice were anesthetized with isfluorane and blood removed through intracardiac puncture and kidneys were harvested, weighted and stored at −80° C. until further use. Cystine stones, if present, were removed, dried, weighted and stored at RT. L-Erg and S-Met-L-Erg analysis in urine were determined as in Example 1. For the determination of transulfuration pathway metabolites concentration, frozen kidneys were grinded using a pre-cooled mortar and pestle on dry ice. Then, 100 mg of powdered kidney were homogenized in 400 μL PBS supplemented with 10 mM NEM. To induce protein precipitation, PCA at 4% was added and samples were centrifuged at 4° C. for 15 min at 10,000 rpm in a microfuge. Supernatants were transferred to a new tube and stored at −80° C. until further analysis. Intracellular content of transulfuration pathway metabolites was determined by U PLC-MS/MS (Escobar J, et al. Development of a reliable method based on ultra-performance liquid chromatography coupled to tandem mass spectrometry to measure thiol-associated oxidative stress in whole blood samples. J. Pharm. Biomed. Anal. 2016; 123: 104-112). Protein pellets were resuspended in 400 μL 1M NaOH and the supernatant used to determine total protein concentration by BCA Protein Assay Kit (ThermoScientific).

[4] = tested on: cystinuric mice (cystine stone formation); test: 6-month (chronic) L-Erg treatment of cystinuric mice since weaning, cystine stone onset by X-ray imaging; format: in vivo, mouse; conditions: for stone growth (rate) in the L-Erg treated group: preventive treatment
Protocol: For the chronic exposure (6-month treatment), 4-6 mice per cage were treated since weaning for 6 months. To control L-Erg dose, water intake and mice weight were monitored and L-Erg concentration in drinking water was adjusted to get 16 mg/kg·day dose every 3 days for the first month and weekly afterwards. All mice were caged in metabolic cages individually the last week of the treatment to collect urine where water intake and mice weight were monitored daily.
(§1) Isoflurane anesthetized mice were subjected to X-ray imaging for lithiasis detection and follow-up with an IVIS Lumina XR Series III (Caliper Lifescience-Vertex Techniques) following manufacturer's imaging parameters at the age indicated in the corresponding figure legends with a calibration curve of cystine stone of known weights. Stone quantification was done using Living Image Software, provided with the instrument, by manually delimiting stone area and the estimated weight was interpolated from the calibration curve.
(§2) For the growth rate analysis, a linear regression model was used when more than 2 data points where available. The slope of the regression line in the model was used as the growth rate.
(§3) During the last week of any treatment period, mice were individually housed in metabolic cages for 4 days with the first day as an adaptation period. Mice weight, water and food intake, and excreted urine were monitored daily. 24 h urine samples were collected and kept at −80° C. until further analysis with 50 μL thymol 10% in isopropanol as preservative. pH was determined with a pHmeter (cat. no. 5209, Crison), and the redox potential with an ORP electrode (cat.no. 5265, Crison) at room temperature on a micropH 2000 (Crison).
On the last day, mice were anesthetized with isfluorane and blood removed through intracardiac puncture and kidneys were harvested, weighted and stored at −80° C. until further use. Cystine stones, if present, were removed, dried, weighted and stored at RT.

[5] = equivalent of 5 mg/kg·day; cited from earlier work
[6] = tested on: lithiasic mice (cystine stone growth); test: 3-month L-Erg treatment of lithiasic mice, cystine stone growth by X-ray imaging; format: in vivo, mouse; conditions: 3 months
Protocol: For the evaluation of L-Erg effect on lithiasic mice, 15 mice (8 males and 7 females) were treated with 60 mg/L L-Erg on the drinking water and 13 mice (4 male and 9 females were left untreated as control. Mice were 10.9-26-9 weeks-old at the beginning of the treatment period with a mean age of 15.3±1.4 and 16.9±1.01 weeks of age for control and L-Erg treated, respectively. During the 3-month treatment water intake and mice weight was monitored weekly.
as §1, §2, §3

cystinuria mouse model = test: 1-month L-Erg treatment in the drinking water (dose finding): water intake, urine pH, ORP, urine L-Erg and S-Met-L-Erg; format: in vivo; conditions: for increase of L-Erg concentration in urine: after vs before treatment
Protocol: Three different treatments were applied to mice: 1-month, 3-month to lithiasic mice (subchronic) and 6-month (chronic exposure). In all cases L-Erg was administered in the drinking water.
For the 1-month treatment, L-Erg was provided to eight 3-month old male and female mice at 15 or 60 mg/L for 4 weeks in standard cages with free access to water and food to 8 mice (4 males and 4 females).
as §3
L-Erg and S-Met-L-Erg analysis in urine were determined as in Example 1. For the determination of transulfuration pathway metabolites concentration, frozen kidneys were grinded using a pre-cooled mortar and pestle on dry ice. Then, 100 mg of powdered kidney were homogenized in 400 μL PBS supplemented with 10 mM NEM. To induce protein precipitation, PCA at 4% was added and samples were centrifuged at 4° C. for 15 min at 10,000 rpm in a microfuge. Supernatants were transferred to a new tube and stored at −80° C. until further analysis. Intracellular content of transulfuration pathway metabolites was determined by U PLC-MS/MS (Escobar J, et al. Development of a reliable method based on ultra-performance liquid chromatography coupled to tandem mass spectrometry to measure thiol-associated oxidative stress in whole blood samples. J. Pharm. Biomed. Anal. 2016; 123: 104-112). Protein pellets were resuspended in 400 μL 1M NaOH and the supernatant used to determine total protein concentration by BCA Protein Assay Kit (ThermoScientific).
First, there were determined the best working dose for treating the mice by investigating the effects of 1-month L-Erg treatment at two different concentrations in the drinking water, 15 and 60 mg/L, on water intake, and urine pH and ORP and L-Erg concentration.

[7] = end of 6-month treatment, treated vs non-treated
[8] = 60 mg/L, before vs after treatment
[9] = 60 mg/L L-Erg in drinking water

SMILES: CSc1ncc(C[C@@H](C(=O)[O-])[N+](C)(C)C)[nH]1 [S-Met-L-Erg, (2-{S})-3-(2-methylsulfanyl-1-{H}-imidazol-5-yl)-2-(trimethylazaniumyl)propanoate]
- area under the ROC curve, urine concentration as lithiasic biomarker [1]: over 0.65

SMILES: C[N+](C)(C)[C@@H](Cc1c[nH]c(=S)[nH]1)C(=O)[O-] (stereo in doubt) [L-Erg, [1-carboxy-2-(2-sulfanylidene-1,3-dihydroimidazol-4-yl)ethyl]-trimethylazanium]
- formation of L-Erg-Cys and L-Erg-L-Erg dimers [2]: Neither L-Erg-Cys, nor L-Erg-L-Erg dimers were detected
- Cys intracellular concentration in kidney, increase [3]: 1.6 ×
- Cys/CssC ratio in kidney, increase [3]: 6.1 times
- GSH intracellular concentration in kidney, increase [3]: 1.4 ×
- GSH/GSSG ratio in kidney, increase [3]: 2.1 times
- Met intracellular concentration in kidney, increase [3]: 1.7 ×
- S-adenosylhomocysteine (SAH) intracellular concentration in kidney, decrease [3]: 1.2 ×
- SAM/SAH ratio in kidney, increase [3]: 1.8 times
- cystine intracellular concentration in kidney, decrease [3]: 11.1 ×
- gamma-Glutamylcysteine intracellular concentration in kidney, increase [3]: 1.7 ×
- lithiasis onset ([4]; 16 mg/kg·day, 6 months, independently of sex): delayed lithiasis onset
- stone growth (rate) in the L-Erg treated group ([4]; 16 mg/kg·day, 6 months, vs untreated): almost statistically significant reduction
- stone growth (rate) in the L-Erg treated group ([4]; 16 mg/kg·day, 6 months, vs untreated, listed as ergothioneine): lower
- effect on mouse weight ([4]; 6-month chronic treatment): no effects
- effect on water intake ([4]; 6-month chronic treatment): no effects
- effect on urine pH [4, 7]: no differences
- effect on urine redox potential [4, 7]: statistically significant more reduced urine
- side effects in cystinuric mice ([4]; mouse, in vivo): does not generate any side effect
- reduction in the number of lithiasic (stone-forming) mice ([4]; target dose 16 mg/kg·day in drinking water since weaning, 6 months, vs untreated): 50%
- delay of stone formation in relation to non-treated mice ([4]; treated mice that still formed stones): 1 month
- time L-Erg blood and plasma concentrations remain significatively higher after the administration end [5]: 6 weeks
- effect on cystine stone growth ([6]; 60 mg/L in drinking water, lithiasic mice, treated vs untreated, p=0.61): No effect
- effect on growth of multiple stones ([6]; 60 mg/L in drinking water, p=0.41): No statistically significant effect
- effect on growth of single stones ([6]; 60 mg/L in drinking water, p=0.78): No statistically significant effect
- effect on surface corrected water intake [6, 8]: no differences
- effect on urine pH [6, 8]: no differences
- effect on urine redox status [6, 8]: no differences
- increase of L-Erg concentration in urine (cystinuria mouse model; 15 mg/L L-Erg in drinking water): 3.4±0.4 fold
- urine pH change (cystinuria mouse model; 15 mg/L L-Erg in drinking water, p=0.052): statistically non-significant increase
- water intake normalized by surface, change at the end of the treatment (cystinuria mouse model; 15 mg/L L-Erg in drinking water, p=0.11): statistically non-significant increase
- urine pH change (cystinuria mouse model; [9]): statistically significant increase
- increase of L-Erg concentration in urine (cystinuria mouse model; [9]): 174.6±38.4 fold
- water intake normalized by surface, change at the end of the treatment (cystinuria mouse model; 60 mg/L L-Erg in drinking water, p=0.08): statistically non-significant increase
- urine redox status or potential (ORP) change (cystinuria mouse model; 15 and 60 mg/L L-Erg in drinking water): statistically non-significant decrease
